This is an account of results in patent US12240844B2 (Voronoi, Inc., priority 2019, dated 2025).

The target of test [1] is T1, human GST-DYRK1A (full length) (Homo sapiens, UniProt Q13627).
T1 construct: purified human GST-DYRK1A (full length, Thermo scientifics) enzyme; GST; purchased Thermo scientifics
Put plainly: GST-DYRK1A enzyme inhibition, ADP-Glo kinase assay. It counts as biochemical. Particulars: read-out: DYRK1 IC50. The method, boiled down:
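Full-length human GST-DYRK1A (10 ng) incubated with 10 uM ATP and specific substrate for 1 h at 25° C in 40 mM Tris-HCl pH 7.4, 20 mM MgCl2, 0.5 mg/mL BSA, 50 uM DTT. ADP formation read by ADP-Glo luminescence; IC50 (nM) versus solvent control, triplicate.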
A general note: ADP-Glo turns the ADP formed in a reaction into a luminescent signal.

Another test addresses T2, human GST-CLK1 (129-end) (Homo sapiens, UniProt P49759).
T2 construct: purified human GST-CLK1 (129-end, Signalchem) enzyme; GST; purchased Signalchem
The test is described as follows: GST-CLK1 enzyme inhibition, ADP-Glo kinase assay. Type of test: biochemical. The following applies: ATP 10 uM. The procedure, abridged:
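GST-CLK1 (129-end, 3 ng) reacted with 10 uM ATP and substrate in 40 mM Tris-HCl pH 7.4, 20 mM MgCl2, 0.5 mg/mL BSA, 50 uM DTT, 1 h at 25° C. ADP-Glo luminescence normalised to solvent control; IC50 from triplicate data.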

Another test has as its system MDA-MB-231 cell line. The test is described as follows: MDA-MB-231 cancer cell proliferation inhibition (Cell Titer-Glo). It counts as cell-based. Particulars: Homo sapiens, MDA-MB-231 triple-negative breast cancer cell line, 72 hours. Here is the method: (§1) In order to evaluate the cancer cell proliferation inhibitory activity of the compounds of the present invention, the following experiments were performed.
(§2) To evaluate the cancer cell proliferation inhibitory effect, the cell growth rate analysis was performed while culturing MDA-MB-231 cell line (Korean Cell Line Bank #30026) and MDA-MB-468 cell line as the triple-negative breast cancer cell line, and SHP-77 (ATCC #CRL-2195) as the small cell lung cancer cell line in DMEM (HyClone #SH30243) and RPMI medium (HyClone #SH3027.01), respectively. More specifically, the cell lines were each plated at 2000 cells/100 μl in each well of a 96-well flat-bottom plate (coming #3903), and then the example compounds having eleven concentrations which were diluted by ⅓ so that the final concentrations were 10.000000, 3.333333, 1.111111, 0.370370, 0.123457, 0.041152, 0.013717, 0.004572, 0.001524, 0.000508 and 0.000169 μM were treated. After 72 hours, 100 μl of Cell Titer-Glo (Promega G7573) was treated, incubated at RT for 10 minutes, and then luminescence was measured using a microplate reader. The measured luminescence degree was calculated as GI50 using Prism (version 8.2 GraphPad) software.
(§3) In the table below, the following designations were used for the evaluation of proliferation inhibitory activity.
For orientation: In ATP-based viability assays light output follows the ATP content of the culture.

Another test has as its system SHP-77. The test is described as follows: SHP-77 cancer cell proliferation inhibition (Cell Titer-Glo). Type of test: cell-based. The following applies: Homo sapiens, SHP77, SHP-77 small cell lung cancer cell line, 72 hours. Here is the method: as §1, §2, §3
The next test concerns the target LRRK2 (Homo sapiens, UniProt Q5S007). The test is described as follows: LRRK2 enzyme inhibition, ADP-Glo kinase assay. It counts as biochemical. Also noted: purchased Invitrogen PR8604B. The procedure, abridged: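 Purified human LRRK2 (25 ng) in 40 mM Tris-HCl pH7.4, 20 mM MgCl2, 0.5 mg/ml BSA, 50 μM DTT with 10 μM ATP and substrate ([…]), 2 h at 25° C. Final compound 50 to 0.000001024 μM, 12-point dilution. ADP-Glo luminescence vs solvent control; IC50 (nM).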

The target of a further test is LRRK2 (G2019S) (Homo sapiens, UniProt Q5S007, G2019S). The test is described as follows: LRRK2 G2019S enzyme inhibition, ADP-Glo kinase assay. Type of test: biochemical. Also noted: purchased SignalChem L10-12GG. The procedure, abridged:
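Purified human LRRK2 G2019S (16 ng) with 25 μM ATP and 0.2 μg substrate, 2 h at 25° C in 40 mM Tris-HCl pH 7.4, 20 mM MgCl2, 0.5 mg/ml BSA, 50 μM DTT; compound at 12 final concentrations from 50 μM downward. ADP-Glo luminescence versus solvent control gave IC50 (nM).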

Chain of LRRK2 (G2019S) (Q5S007 970-2527 G2019S limits assumed): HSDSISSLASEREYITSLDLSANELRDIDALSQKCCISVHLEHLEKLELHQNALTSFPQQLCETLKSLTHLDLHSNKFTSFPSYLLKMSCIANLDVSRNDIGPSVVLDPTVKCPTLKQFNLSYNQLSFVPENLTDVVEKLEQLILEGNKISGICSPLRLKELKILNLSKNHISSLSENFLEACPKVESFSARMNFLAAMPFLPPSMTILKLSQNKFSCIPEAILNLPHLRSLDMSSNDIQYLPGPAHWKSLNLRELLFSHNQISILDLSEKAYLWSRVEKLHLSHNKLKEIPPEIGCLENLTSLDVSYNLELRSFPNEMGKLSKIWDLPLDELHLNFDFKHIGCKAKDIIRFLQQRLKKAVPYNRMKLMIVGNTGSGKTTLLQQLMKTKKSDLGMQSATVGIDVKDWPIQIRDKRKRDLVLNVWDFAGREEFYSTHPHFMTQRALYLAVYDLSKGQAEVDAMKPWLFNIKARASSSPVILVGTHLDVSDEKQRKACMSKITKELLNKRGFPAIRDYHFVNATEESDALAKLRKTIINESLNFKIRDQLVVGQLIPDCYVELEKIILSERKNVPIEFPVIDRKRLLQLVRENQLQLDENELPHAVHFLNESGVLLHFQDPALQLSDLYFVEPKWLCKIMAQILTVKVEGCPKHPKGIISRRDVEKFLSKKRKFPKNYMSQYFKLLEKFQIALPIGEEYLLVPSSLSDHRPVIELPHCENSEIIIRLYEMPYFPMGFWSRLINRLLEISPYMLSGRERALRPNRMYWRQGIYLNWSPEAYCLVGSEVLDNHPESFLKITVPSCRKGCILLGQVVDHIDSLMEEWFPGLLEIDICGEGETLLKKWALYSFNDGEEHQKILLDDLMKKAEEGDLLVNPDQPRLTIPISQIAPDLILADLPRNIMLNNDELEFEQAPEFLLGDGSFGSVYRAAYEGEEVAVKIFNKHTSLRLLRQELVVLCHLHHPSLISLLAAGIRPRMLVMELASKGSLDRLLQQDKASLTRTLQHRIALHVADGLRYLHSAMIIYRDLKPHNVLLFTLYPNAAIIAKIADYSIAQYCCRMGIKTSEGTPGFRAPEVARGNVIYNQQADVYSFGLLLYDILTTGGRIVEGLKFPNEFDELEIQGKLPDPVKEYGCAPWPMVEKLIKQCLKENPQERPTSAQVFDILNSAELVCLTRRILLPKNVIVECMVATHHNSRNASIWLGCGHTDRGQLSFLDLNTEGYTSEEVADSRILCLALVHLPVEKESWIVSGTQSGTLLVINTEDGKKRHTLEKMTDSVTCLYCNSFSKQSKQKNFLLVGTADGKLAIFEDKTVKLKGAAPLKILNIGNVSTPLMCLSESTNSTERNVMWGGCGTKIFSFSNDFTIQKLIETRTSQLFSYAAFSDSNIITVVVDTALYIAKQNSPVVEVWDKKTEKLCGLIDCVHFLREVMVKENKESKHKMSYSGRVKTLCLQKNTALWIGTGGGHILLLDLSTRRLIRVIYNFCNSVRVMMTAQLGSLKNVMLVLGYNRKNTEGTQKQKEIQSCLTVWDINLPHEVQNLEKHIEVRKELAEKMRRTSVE
Chain of LRRK2 (Q5S007 970-2527 limits assumed): as the sequence (Q5S007 970-2527 G2019S limits assumed) above, with S1050G counted along it
T2 sequence (P49759 129-484 limits assumed): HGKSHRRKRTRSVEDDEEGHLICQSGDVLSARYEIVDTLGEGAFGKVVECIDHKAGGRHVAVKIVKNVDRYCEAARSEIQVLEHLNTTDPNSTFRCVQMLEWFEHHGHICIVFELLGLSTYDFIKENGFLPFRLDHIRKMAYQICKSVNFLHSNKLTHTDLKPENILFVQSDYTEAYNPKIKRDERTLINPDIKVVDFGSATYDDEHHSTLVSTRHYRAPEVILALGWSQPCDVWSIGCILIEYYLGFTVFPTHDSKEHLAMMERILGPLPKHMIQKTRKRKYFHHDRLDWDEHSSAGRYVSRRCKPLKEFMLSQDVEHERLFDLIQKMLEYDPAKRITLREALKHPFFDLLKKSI

For `CCNc1cc(Nc2ccc(S(=O)(=O)N3CCOCC3)cc2OC)nc2[nH]cc(C#N)c12` [Example 132, 4-(ethylamino)-6-((2-methoxy-4-(morpholinosulfonyl)phenyl)amino)-1H-pyrrolo[2,3-b]pyridine-3-carbonitrile], the IC50 – broadly, the concentration at which inhibition is half-maximal – was 301 to 1000 nM in test [1], 301 to 1000 nM on human GST-CLK1 (129-end), below 100 nM on LRRK2 and 101 to 300 nM against LRRK2 (G2019S). The GI50 – broadly, the concentration giving 50% growth inhibition – is 101 to 300 nM in the test with MDA-MB-231 cell line and 51 to 100 nM in the test with SHP-77.

As for `CCCNc1cc(Nc2ccc(S(=O)(=O)N3CCOCC3)cc2OC)nc2[nH]cc(C#N)c12` [Example 133, 6-((2-methoxy-4-(morpholinosulfonyl)phenyl)amino)-4-(propylamino)-1H-pyrrolo[2,3-b]pyridine-3-carbonitrile], the IC50 was 301 to 1000 nM in test [1], 301 to 1000 nM on human GST-CLK1 (129-end), below 100 nM on LRRK2 and 301 to 1000 nM at LRRK2 (G2019S). In addition, the 50% growth inhibitory concentration (GI50) in the test on MDA-MB-231 cell line was 101 to 300 nM; in the test with SHP-77 it was 51 to 100 nM.

Consider `COc1cc(S(=O)(=O)N2CCC(N3CCOCC3)CC2)ccc1Nc1cc(NC2CC2)c2c(C#N)c[nH]c2n1` [Example 134, 4-(cyclopropylamino)-6-((2-methoxy-4-((4-morpholinopiperidin-1-yl)sulfonyl)phenyl)amino)-1H-pyrrolo[2,3-b]pyridine-3-carbonitrile], for which the IC50 in test [1] is 301 to 1000 nM; against human GST-CLK1 (129-end), 101 to 300 nM; on LRRK2 it was below 100 nM; on LRRK2 (G2019S), below 100 nM. The concentration for 50% growth inhibition (GI50) with MDA-MB-231 cell line and in the test with SHP-77 was below 50 nM throughout.

Turning to `COc1cc(S(=O)(=O)N2CCC(N3CCOCC3)CC2)ccc1Nc1cc(NC2CCC2)c2c(C#N)c[nH]c2n1` [Example 135, 4-(cyclobutylamino)-6-((2-methoxy-4-((4-morpholinopiperidin-1-yl)sulfonyl)phenyl)amino)-1H-pyrrolo[2,3-b]pyridine-3-carbonitrile], the concentration for half-maximal inhibition (IC50) is 301 to 1000 nM in test [1], 301 to 1000 nM at human GST-CLK1 (129-end), below 100 nM on LRRK2 and below 100 nM on LRRK2 (G2019S). The values for the GI50 in the test with MDA-MB-231 cell line and with SHP-77 were 51 to 100 nM and below 50 nM, respectively.

Turning to `CNc1cc(Nc2ccc(S(=O)(=O)N3CCC(N4CCOCC4)CC3)cc2OC)nc2[nH]cc(C#N)c12` [Example 137, 6-((2-methoxy-4-((4-morpholinopiperidin-1-yl)sulfonyl)phenyl)amino)-4-(methylamino)-1H-pyrrolo[2,3-b]pyridine-3-carbonitrile], the 50% inhibitory concentration (IC50) in test [1] is 301 to 1000 nM; at human GST-CLK1 (129-end) it was 301 to 1000 nM; on LRRK2 it was below 100 nM; against LRRK2 (G2019S), below 100 nM. In addition, the GI50 with MDA-MB-231 cell line and in the test on SHP-77 was 51 to 100 nM each time.

For the compound `CCNc1cc(Nc2ccc(S(=O)(=O)N3CCC(N4CCOCC4)CC3)cc2OC)nc2[nH]cc(C#N)c12` [Example 138, 4-(ethylamino)-6-((2-methoxy-4-((4-morpholinopiperidin-1-yl)sulfonyl)phenyl)amino)-1H-pyrrolo[2,3-b]pyridine-3-carbonitrile], the IC50 in test [1] was 101 to 300 nM; at human GST-CLK1 (129-end) it was 301 to 1000 nM; at LRRK2 it was below 100 nM; on LRRK2 (G2019S) it was below 100 nM. The GI50 in the test with MDA-MB-231 cell line and in the test on SHP-77 was below 50 nM throughout.

Take `CCCNc1cc(Nc2ccc(S(=O)(=O)N3CCC(N4CCOCC4)CC3)cc2OC)nc2[nH]cc(C#N)c12` [Example 139, 6-((2-methoxy-4-((4-morpholinopiperidin-1-yl)sulfonyl)phenyl)amino)-4-(propylamino)-1H-pyrrolo[2,3-b]pyridine-3-carbonitrile]: the half-maximal inhibitory concentration (IC50) in test [1] is 301 to 1000 nM; at human GST-CLK1 (129-end), 301 to 1000 nM; against LRRK2, below 100 nM; on LRRK2 (G2019S), below 100 nM. Moreover, the GI50 with MDA-MB-231 cell line and in the test with SHP-77 was below 50 nM in each case.
